{
  "source": "patent US20140087007A1",
  "about": "“BOWEL CLEANSING PREPARATIONS” (Braintree Laboratories, Inc., priority 2012, published 2014)",
  "tested_on": "colon (colonic purgation)",
  "experiment": "Stool output of normal volunteers after one amount of laxative, bowel movements collected 24 hours",
  "type": "in vivo, human",
  "conditions": "20 mg, 24 hours collection",
  "description": "The sulfate salt solutions such as those described herein were investigated for their efficacy as colon debulking agents because bisacodyl has been associated with reports of abdominal cramping. Four different solutions were prepared with varying amounts of sodium, magnesium, and potassium sulfate salts and each containing a total sulfate amount of 125 mM.\nThese included bisacodyl (20 mg), a PEG and balanced electrolyte isotonic preparation (NuLYTELY®, (2 L or 4 L) or HalfLytely®+Bisacodyl Bowel Prep Kit, (2 L PEG and electrolytes and 10 mg bisacodyl). Bowel movements and urine were collected for 24 hours. The stool output of the subjects were compared and evaluated for movement of electrolytes between the solution and the subject.\nThe results measured were mean stool volume output and are shown below in Table 2 using non-sulfate laxatives and in Table 3 using sulfate laxatives.",
  "data": [
    {"smiles": "CC(=O)Oc1ccc(C(c2ccc(OC(C)=O)cc2)c2ccccn2)cc1", "note": "[Bisacodyl, bisacodyl]", "values": [
      {"measurement": "% Solids (stool)", "result": 50.4, "unit": "%"},
      {"measurement": "Output (mean stool volume output)", "result": 757, "unit": "g"}
    ]}
  ]
}
